# Entries after “also recorded” stand apart in the source; their conditions may differ.
# Experiments:
# pancreatic acini = experiment: Acinar-adipocyte co-culture; type: cell-based, mice
# Source text: Harvesting cells: Primary acinar cells from wild type mice (C57B6) were harvested and used as described previously. Viability, confirmed by trypan blue exclusion, was >95%. […] These were used in the individual experiments. Data presented is representative of 3 or more experiments. Acinar-adipocyte co-culture: This was done in 12-well companion plates with cell culture inserts (FIG. 14). […] Serum and medium cytokine assays: These were done for TNF-α, MCP-1, IL-6, resistin, and adiponectin using the fluorescence-based capture sandwich immunoassay based on the Luminex FlowMetrix system (Luminex). The Milliplex Mouse Adipokine Panel (7-Plex) 1 kit from Millipore (Billerica, Mass.) was used. Samples were analyzed using the Bio-Plex suspension array system, which included a fluorescent reader and Bio-Plex Manager analytical software (Bio-Rad Laboratories, Hercules, Calif.) at the University of Pittsburgh, Cancer Institute Luminex Core Facility. Visceral fat triglyceride composition: The visceral fat triglyceride composition analysis was done at Kennedy Krieger Institute (Baltimore, Md.). Briefly, total lipids were extracted by the method of Folch. […] The fatty acids were derivatized and analyzed by GCMS as their pentafluorbenzylbromide esters. ATP levels, cytochrome C release, and % LDH leakage were measured as previously described. Apoptosis was measured by active caspase-3 [western blotting, activity assays (Enzcheck, Invitrogen, Carlsbad, Calif.)], TUNEL assays, and Hoechst dye nuclear incorporation (8 mg/ml Hoechst 33342 added for 15 minutes after treatment). […] Results were reported as % of cells with given nuclear changes. These were counter stained with PI (1 μM) to stain necrotic cells (FIG. 7A, B, C) and imaged with a Zeiss Meta dual fluorescence confocal microscope. PI-positive cells were counted as late apoptosis or necrosis. […] Autophagy was studied by western blotting for LC3-I and II. RNA was extracted using Trizol (Invitrogen, Carlsbad, Calif.). mRNA levels of TNF-α, CXCL1, and CXCL2 were measured as described previously using real time-PCR performed on an ABI Prism 7000 Sequence Detection System (Applied Biosystems, Foster City, Calif.) on proprietary Taqman Gene Expression assay reagents (Applied Biosystems). Mitochondrial complex assays and citrate synthase assay were done as described previously.
# adipocytes = experiment: Isoproterenol-stimulated glycerol release in adipocyte culture; type: cell-based
# ob/ob mice = experiment: IL12+18 pancreatitis model; type: in vivo; details: for pancreatic changes: fat necrosis, saponification, peri-fat acinar necrosis, acinar necrosis, hypocalcemia (gross, histologic, biochemical): orlistat 50 mg/kg every 12 hours from 2 hours after induction; for serum SFA levels: orlistat vs IL+Veh group
# Source text: For histologic evaluation, we retrieved all hematoxylin and eosin-stained slides of the pancreas (1-4 in number) of control and acute pancreatitis patients. A trained pathologist with specific interest in gastrointestinal pathology blinded to demographic and clinical data examined the slides. Adipose tissue with large vessels and nerves not bounded by at least 2 pieces of pancreatic parenchyma was regarded as peripancreatic and excluded. The remaining adipose tissue, necrotic fat (bluish cheesy appearance of adipocytes), necrotic parenchyma, and parenchymal necrosis immediately contiguous to areas of fat necrosis (peri-fat acinar necrosis; PFAN) were additionally measured. All of these were measured as a percentage pixel area of each individual field after excluding dead space using Adobe Photoshop PS. The pixel areas of individual parameters for each case were added. The final number was divided by the number of fields to give a percentage area for that parameter in the section. For patients with more than 1 section, the average of the percentage of intrapancreatic fat for all fields from different sections was chosen as representative for the specimen. Von Kossa (to study fat necrosis, saponification), TUNEL (Terminal deoxynucleotidyl transferase dUTP nick end labeling), and oil red O staining were done per standard protocol.
# Serum and medium cytokine assays: These were done for TNF-α, MCP-1, IL-6, resistin, and adiponectin using the fluorescence-based capture sandwich immunoassay based on the Luminex FlowMetrix system (Luminex). The Milliplex Mouse Adipokine Panel (7-Plex) 1 kit from Millipore (Billerica, Mass.) was used. Samples were analyzed using the Bio-Plex suspension array system, which included a fluorescent reader and Bio-Plex Manager analytical software (Bio-Rad Laboratories, Hercules, Calif.) at the University of Pittsburgh, Cancer Institute Luminex Core Facility.
# Pancreatitis model: IL12+18 model: There were 8-12 animals in each group. Pancreatitis was induced as described previously in 8-10 week old female ob-ob (B6.V-Lepob/J) mice. Briefly, IL-12 (150 ng/dose/mouse) and IL-18 (750 ng/dose/mouse) were simultaneously given intraperitoneally in 2 doses, 24 hours apart. Orlistat at reduced dose than previously published (50 mg/kg) was administered in vehicle (0.1 ml 30% ethanol) as described previously. First injection of orlistat or vehicle was 2 hours after induction of pancreatitis, and these were then repeated every 12 hours.
# Non-esterified fatty acid analysis: The sample was extracted with isopropanol-heptane-hydrochloric acid (1M) (40:10:1, v/v) by vortexing for 25-30 min and allowed to incubate at room temperature for 10 minutes. Heptane (4.0 ml) and water (2.0 ml) were added, and the tubes were thoroughly vortexed for 5 minutes. Tubes were centrifuged at 1000 g for 10 minutes at 4° C., and the upper phase (heptane) is transferred into 13×100 mm screw top tubes and dried in a SpeedVac centrifugal concentrator. Non-esterified fatty acids were derivatized with dimethylamine using the Deoxo-Fluor reagent. Non-esterified fatty acid concentrations are measured by gas chromatography separation with flame ionization detection using heptanoic acid as an internal standard. This derivatization method is very mild and efficient and is selective only towards non-esterified fatty acids so that no separation from a total lipid extract is required.
# Male Wistar rats = experiment: Intraductal infusion of glyceryl trilinoleate (GTL) pancreatitis; type: in vivo
# Method: Experiments were performed using a model, the technique of which is established and well described in rats (1, 2, 4, 7). This involves infusion of agents into the pancreatic duct to cause acute pancreatitis (1, 2, 4, 7). We will refer to this technique as “intraductal infusion”. We compared the severity of pancreatic damage and survival of rats after intraductal infusion of Glyceryl trilinoleate with and without the lipase inhibitor orlistat. In addition, we used a different lipase inhibitor-cetilistat (3, 6), and studied its efficacy in improving survival of rats in intraductal infusion pancreatitis induced with Glyceryl trilinoleate (GTL).
# Male Wistar rats (250-350 gm), were anesthetized. Intraductal infusion of 0.1 ml (n=5) or 0.2 ml (n=5) of GTL (Sigma-Aldrich corporation) alone or GTL+orlistat (Caymen chemical, Ann Arbor, Mich.) (75 mg/ml, 0.1 ml n=5 or 0.2 ml n=5) or GTL+cetilistat (Jinan Wedo Industrial Co., Ltd., Jinan City, Shandong China) (25 mg/ml, 0.2 ml, n=10) was done as described previously (1, 2, 4, 7). All animals were given pain control (buprenorphine 200 mcg/kg BID), Cefazolin (100 mg/kg), and 10 cc saline subcutaneously BID as per the IACUC protocol. These were followed for survival.
# mouse melanoma model = details: Carvalho et al., Int. J. Cancer 2008; cited from earlier work
# [1] = orlistat 50 μM, acini co-cultured with adipocytes
# [2] = orlistat 50 mg/kg every 12 hours
# [3] = in combination with GTL, at necropsy
smiles,measurement,setting,value
CCCCCCCCCCC[C@@H](C[C@@H]1OC(=O)[C@H]1CCCCCC)OC(=O)[C@H](CC(C)C)NC=O [orlistat],amylase secretory response to caerulein after co-culture,"pancreatic acini; 50 μM orlistat, basal, 100 pM and 100 nM caerulein",amylase secretory pattern like control acini
same,resistin levels in the medium,"pancreatic acini; 50 μM orlistat, co-culture",prevents increase in resistin
same,acinar cell viability and function,pancreatic acini; [1],restored acinar cell viability and function to control levels
same,"co-culture induced acinar cell changes (necrosis: propidium iodide positivity, drop in ATP levels, cytochrome c leakage; NEFA and resistin increase in medium)",pancreatic acini; [1],completely prevented
same,10 μM isoprotrenol stimulated increase in glycerol levels,"adipocytes; 50 μM orlistat, 1 hour adipocyte culture",not significantly prevented
same,permeability through cell membranes,adipocytes; inferred from glycerol release experiment,limited permeability; also recorded: low permeability
same,serum amylase and lipase levels,ob/ob mice; compared with IL or IL+Veh groups,significantly reduced
same,"lung injury (apoptotic cells, lung MPO levels)",ob/ob mice; [2],significantly reduced
same,mortality,ob/ob mice; [2],significantly reduced
same,"renal end organ damage (BUN, tubular vacuoles, oil red O, TUNEL, mitochondrial swelling, saponification)",ob/ob mice; [2],normalized
same,serum UFA levels,ob/ob mice; [2],significantly reduced
same,"serum resistin, TNF-α, MCP-1 and IL-6",ob/ob mice; [2],normalized
same,"pancreatic changes: fat necrosis, saponification, peri-fat acinar necrosis, acinar necrosis, hypocalcemia (gross, histologic, biochemical)",ob/ob mice,prevents saponification
same,"pancreatic changes: fat necrosis, saponification, peri-fat acinar necrosis, acinar necrosis, hypocalcemia (gross, histologic, biochemical)",ob/ob mice; listed as Orlistat,significantly blocked
same,"renal end organ damage (BUN, tubular vacuoles, oil red O, TUNEL, mitochondrial swelling, saponification)","ob/ob mice; orlistat 50 mg/kg every 12 hours, listed as Orlistat",reduces these
same,serum SFA levels,ob/ob mice,not significantly reduced
same,serum SFA levels,ob/ob mice; listed as Orlistat,did not significantly reduce
same,mortality,"Male Wistar rats; dead/total, intraductal GTL alone, GTL+orlistat 75 mg/ml, GTL+cetilistat 25 mg/ml, followed to day 5",0/10
same,lung injury (TUNEL positive nuclei),Male Wistar rats; [3],absence of TUNEL positive nuclei
same,renal injury (TUNEL positive nuclei),Male Wistar rats; [3],nearly completely prevented
same,lung injury (TUNEL positive nuclei),"Male Wistar rats; in combination with GTL, at necropsy, listed as Orlistat",nearly completely prevented
same,gross pancreatic appearance: hemorrhages and necrosis,Male Wistar rats; intraductal GTL with or without lipase inhibitor,prevented the hemorrhages and necrosis up to 5 days
same,"apoptosis, cell growth and lymph node metastasis",mouse melanoma model,promote apoptosis and reduce cell grown and lymph node metastasis

# — US9943499B2, “Lipase inhibitors for the treatment of pancreatitis and organ failure” (priority 2011, dated 2018)
